# US20020045247A1, “METHODS FOR THE PREPARATION OF RETROVIRAL PARTICLES AND CELL LINES DEFICIENT IN THE ALPHA-GALACTOSYL EPITOPE” (priority 1997, published 2002)
# Key:
# [1] = target: T1, Golgi α-mannosidase II (Homo sapiens, UniProt Q16706); conditions: addition of inhibitor; cited from earlier work
# T1 sequence (Q16706 1-1144): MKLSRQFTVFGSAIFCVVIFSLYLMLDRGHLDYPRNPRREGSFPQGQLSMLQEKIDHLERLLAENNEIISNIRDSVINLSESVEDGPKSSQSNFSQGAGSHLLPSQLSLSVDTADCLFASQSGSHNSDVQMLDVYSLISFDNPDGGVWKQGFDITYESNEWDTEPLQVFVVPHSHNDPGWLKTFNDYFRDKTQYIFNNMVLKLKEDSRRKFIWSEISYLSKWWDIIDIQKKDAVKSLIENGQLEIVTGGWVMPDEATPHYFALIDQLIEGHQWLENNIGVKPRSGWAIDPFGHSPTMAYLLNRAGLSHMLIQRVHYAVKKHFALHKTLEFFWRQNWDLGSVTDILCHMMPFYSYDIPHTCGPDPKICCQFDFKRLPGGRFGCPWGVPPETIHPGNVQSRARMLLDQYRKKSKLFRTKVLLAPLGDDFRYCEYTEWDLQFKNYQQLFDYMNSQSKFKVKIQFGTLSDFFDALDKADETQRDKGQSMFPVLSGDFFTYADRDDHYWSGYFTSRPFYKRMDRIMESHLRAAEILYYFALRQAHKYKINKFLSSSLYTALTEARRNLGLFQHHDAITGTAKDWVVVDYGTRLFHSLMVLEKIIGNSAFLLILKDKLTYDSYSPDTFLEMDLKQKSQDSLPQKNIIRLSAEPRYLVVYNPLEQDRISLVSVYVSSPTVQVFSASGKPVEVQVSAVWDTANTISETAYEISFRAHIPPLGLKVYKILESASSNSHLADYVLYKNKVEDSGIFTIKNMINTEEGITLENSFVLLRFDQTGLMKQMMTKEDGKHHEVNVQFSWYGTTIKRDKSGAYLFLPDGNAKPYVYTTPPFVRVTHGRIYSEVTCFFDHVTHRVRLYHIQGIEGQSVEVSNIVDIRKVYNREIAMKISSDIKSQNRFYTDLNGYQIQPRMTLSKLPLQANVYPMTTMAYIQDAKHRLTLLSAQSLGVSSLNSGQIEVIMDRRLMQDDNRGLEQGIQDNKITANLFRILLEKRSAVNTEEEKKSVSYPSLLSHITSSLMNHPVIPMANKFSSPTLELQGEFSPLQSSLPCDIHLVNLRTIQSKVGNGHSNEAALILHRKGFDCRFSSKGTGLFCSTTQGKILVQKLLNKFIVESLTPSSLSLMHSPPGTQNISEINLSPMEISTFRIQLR
# [2] = tested on: complement-mediated inactivation of amphotropic retroviral particles in human serum; test: Retrovirus killing assay in human serum preincubated with soluble carbohydrates; assay type: cell-based; conditions: for effect on complement-mediated retrovirus inactivation / retrovirus survival: 5 mg/ml carbohydrate preincubated with 40% human serum, titered on NIH/3T3 cells
# Method: (§1) RVVP samples were assayed for titer of infectious RVVPs on NIH/3T3 cells (ATCC designation CCL 163). 2.5×10^4 cells were plated per well in 6-well plates with 2 ml of DMEM containing 10% fetal bovine serum (D10). The medium in each well was replaced with 2 ml of D10 containing 8 μg/ml of polybrene and retroviral particles were added. Ten-fold dilutions were made from the original well and plates were incubated for 24 h at 37° C. Medium was removed and 2 ml of D10 containing 500 μg/ml of G418 (active weight) was added. The cells were maintained under selection for 7 days with 2 changes of medium during this period. Finally, medium was removed and colonies were stained with methylene blue saturated methanol for 15 min. followed by a brief rinse in water. Wells containing less than 100 colonies were counted to determine titers.
# Retroviral vector particles, including those from PA317 or PA317/H-transferase cells, (approximately 500 CFU) were incubated for 30 min. at 37° C. in 100 μl of 40% primate sera diluted in Hank's balanced salt solution (HBSS) and subsequently titered on NIH/3T3 cells to assess retrovirus survival as described above. The different primate sera included human (Diamedix, Cambridge, Mass.), chimpanzee (Southwest Foundation for Research, San Antonio, Tex.), baboon, squirrel monkey, owl monkey and tamarin (all from the New England Regional Primate Research Center, Southborough, Mass.). Data were calculated as percent retrovirus survival in the various sera relative to the number of input CFU (determined by incubation of virus in 40% heat inactivated human serum). […] In the anti-αgalactosyl antibody depletion experiments, retroviral particles were preincubated with either anti-αgalactosyl antibody (90 μg/ml) or buffer alone (PBS; BioWhittaker, Walkersville, Md.) for 30 min. at 37° C. before the addition of either 40% human serum, 40% human serum depleted of anti-αgalactosyl antibodies or 40% squirrel monkey serum for an additional 30 min. incubation. Retrovirus survival was then assessed as described above.
# [3] = tested on: inactivation of LXSN retroviral vector particles by human serum; test: Inactivation of LXSN retroviral vector particles in human serum in the presence of added sugars (Example 2); assay type: cell-based; conditions: 0.3125, 0.625, 1.25, 2.5 and 5 mg/ml; 40% human serum; relative to samples without added sugars
# Method: as §1
# LXSN retroviral vector particles were prepared as described above. Aliquots of a 40% solution of human serum in HBSS were then incubated for 15 minutes at room temperature with added sugars. The sugars added were D-glucose (Mallinckrodt, Paris, Ky.) and galactose alpha-1,3 galactose (Dextra Laboratories, Reading, England), and were added at concentrations of 0.3125, 0.625, 1.25, 2.5, and 5 mg/ml. […] The results of these titrations were calculated as fold increase in retroviral vector particle survival relative to the control samples, and are set forth in FIG. 2.
# [4] = target: T2, α-glucosidase I (Homo sapiens, UniProt Q13724); conditions: addition of inhibitor; cited from earlier work
# T2 sequence (Q13724 1-837): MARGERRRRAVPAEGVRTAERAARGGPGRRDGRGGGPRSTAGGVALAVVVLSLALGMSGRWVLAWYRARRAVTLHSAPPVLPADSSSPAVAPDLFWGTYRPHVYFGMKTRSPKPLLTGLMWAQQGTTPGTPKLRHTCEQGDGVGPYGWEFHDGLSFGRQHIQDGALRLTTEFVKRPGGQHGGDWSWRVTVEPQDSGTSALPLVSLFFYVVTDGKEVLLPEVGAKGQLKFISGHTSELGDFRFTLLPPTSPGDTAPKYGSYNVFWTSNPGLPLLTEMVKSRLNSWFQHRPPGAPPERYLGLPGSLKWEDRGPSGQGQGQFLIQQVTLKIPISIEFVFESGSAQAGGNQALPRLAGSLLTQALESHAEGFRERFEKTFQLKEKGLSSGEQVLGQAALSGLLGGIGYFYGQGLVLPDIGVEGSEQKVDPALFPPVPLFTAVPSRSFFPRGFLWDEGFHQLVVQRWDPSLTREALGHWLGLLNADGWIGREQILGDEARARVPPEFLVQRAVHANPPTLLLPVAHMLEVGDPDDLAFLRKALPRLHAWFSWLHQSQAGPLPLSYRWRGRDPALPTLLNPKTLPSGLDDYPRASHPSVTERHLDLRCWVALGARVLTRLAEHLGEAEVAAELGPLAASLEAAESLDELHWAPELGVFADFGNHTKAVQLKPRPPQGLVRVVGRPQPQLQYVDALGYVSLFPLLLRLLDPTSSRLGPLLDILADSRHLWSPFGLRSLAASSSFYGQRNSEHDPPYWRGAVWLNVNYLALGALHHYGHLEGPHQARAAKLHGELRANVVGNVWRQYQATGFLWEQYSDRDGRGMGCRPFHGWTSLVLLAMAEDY
# [5] = tested on: Golgi α-mannosidase I; conditions: addition of inhibitor; cited from earlier work
smiles,measurement,setting,value
O[C@H]1[C@H]2[C@H](O)CCCN2C[C@H]1O [swainsonine],activity of Golgi α-mannosidase II,[1],greatly reduced
OC[C@H]1O[C@@](CO)(O[C@H]2O[C@H](CO)[C@@H](O)[C@H](O)[C@H]2O)[C@@H](O)[C@@H]1O [sucrose],effect on complement-mediated retrovirus inactivation / retrovirus survival,[2],did not affect retrovirus survival
C[C@@H]1O[C@@H](O)[C@@H](O)[C@H](O)[C@@H]1O [α-L(−) fucose],effect on complement-mediated retrovirus inactivation / retrovirus survival,[2],did not affect retrovirus survival
O=C[C@H](O)[C@@H](O)[C@H](O)[C@H](O)CO [D(+) glucose],effect on complement-mediated retrovirus inactivation / retrovirus survival,[2],did not affect retrovirus survival
same,reduction of inactivation of retroviral vector particles by human serum,[3],not
"OC[C@H]1O[C@H](O[C@H]2[C@@H](O)[C@@H](CO)OC(O)[C@@H]2O)[C@H](O)[C@@H](O)[C@H]1O (stereo partly drawn) [Galα1-3Gal, galactose α1-3 galactose]",effect on complement-mediated retrovirus inactivation / retrovirus survival,[2],completely blocked complement-mediated virolysis
same,"inhibition of retrovirus inactivation, dose dependence","[2]; various concentrations, 40% human serum",inhibited retrovirus inactivation in a dose-dependent manner
same,reduction of inactivation of retroviral vector particles by human serum,[3],substantially reduces the inactivation of the retroviral vector particles
O[C@H]1[C@H](O)[C@@H](O)CN2CC[C@H](O)[C@H]12 [castanospermine],activity of α-glucosidase I,[4],greatly reduced
OC[C@H]1NC[C@@H](O)[C@@H](O)[C@@H]1O [1-deoxymannojirimycin],activity of Golgi α-mannosidase I,[5],greatly reduced
O=C[C@H](O)[C@@H](O)[C@@H](O)[C@H](O)CO [D(+) galactose],inhibition at 5000 µg/mL,"[2]; 5 mg/ml, 40% human serum",~25%
CN1C[C@H](O)[C@@H](O)[C@H](O)[C@H]1CO [N-methyldeoxynojirimycin],activity of α-glucosidase I,[4],greatly reduced
